From US6258840A, “Analogues or derivatives of quercetin (prodrugs)” (Cobra Therapeutics Limited, priority 1996, dated 2001)
Where a name gives a salt, the structure may show the parent alone. Read-outs that look alike come from different tables or passages of the source. Each block holds one molecule with its values, some of them ahead of it.

What was measured:
[1] = Stability to Human Plasma (HPLC, 37° C.); assay type: in vitro ADME; settings: for half-life: 0.02 ml of 6.3 mg/ml prodrug solution added to 2.5 ml plasma
Method: Freshly prepared plasma (2.5 ml) was incubated at 37° C. and 0.02 ml of a 6.3 mg/ml solution of the prodrug compound in water was added. Aliquots of plasma were taken for HPLC analysis at zero time and at intervals thereafter. Samples were quenched with chilled methanol, the resulting precipitate was centrifuged at 4° C. at 800 rpm for 5 minutes, and the supernatant was analysed by HPLC.

[2] = tested on: antiproliferative activity of cis-diaminedichloroplatinum II (cis-DDP); settings: in vivo, with cis-DDP; cited from earlier work
[3] = tested on: antiproliferative activity of cis-diaminedichloroplatinum II (cis-DDP); settings: in vitro, with cis-DDP; cited from earlier work
[4] = tested on: calcium- and phospholipid dependent protein kinase (protein kinase C); settings: in vitro; cited from earlier work
[5] = tested on: calcium- and phospholipid dependent protein kinase (protein kinase C); settings: in vivo; cited from earlier work
[6] = pharmaceutically acceptable solvents; cited from earlier work

pH of solution in water (10 mg/ml solution in water): approximately 7 | period for which the solution is stable (10 mg/ml solution in water, -20° C.): at least 12 weeks | pH of solution in dextrose (diluted into dextrose, final prodrug concentration 1 mg/ml): approximately 6
Molecule: 3'/4'-((N-Carboxymethyl)carbamoyloxy)-3,4'(3'),5,7-tetrahydroxy-flavone, N-Methyl-D-glucamine salt

Molecule: O=C(O)CNC(=O)Oc1ccc(-c2oc3cc(O)cc(O)c3c(=O)c2O)cc1O [4' carbamate ester]
conversion into Quercetin [1]: converted into Quercetin | half-life [1]: ~1 h

Molecule: O=c1c(O)c(-c2ccc(O)c(O)c2)oc2cc(O)cc(O)c12 [Quercetin, 3,3',4',5,7-pentahydroxyflavone]
enhancement of antiproliferative activity of cis-DDP [2]: synergistically enhances the antiproliferative activity | enhancement of antiproliferative activity of cis-DDP [3]: synergistically enhances the antiproliferative activity | inhibition of protein kinase C activity [4]: inhibit the activity | inhibition of protein kinase C activity [5]: inhibit the activity | solubility [6]: limited solubility

Molecule: O=C(O)CNC(=O)Oc1cc(-c2oc3cc(O)cc(O)c3c(=O)c2O)ccc1O [3' carbamate ester, 3'-((N-Carboxymethyl)carbamoyloxy)-3,4',5,7-tetrahydroxyflavone, N-Methyl-D-glucamine salt]
conversion into Quercetin [1]: converted into Quercetin | half-life [1]: ~1 h
